Consider four compounds from BindingDB's records for doi:10.1021/jm070453f (Gnf, 2007).

By EC50 is commonly meant the concentration needed to bring the measured effect to its halfway point. Higher therefore signals a need for much substance. A word on the IC50: it is the point on the concentration scale where inhibition reaches its midpoint.

For assay [1], the target named is T1, Oxysterols receptor LXR-beta (Homo sapiens, UniProt P55055).
T1 sequence (P55055 whole entry): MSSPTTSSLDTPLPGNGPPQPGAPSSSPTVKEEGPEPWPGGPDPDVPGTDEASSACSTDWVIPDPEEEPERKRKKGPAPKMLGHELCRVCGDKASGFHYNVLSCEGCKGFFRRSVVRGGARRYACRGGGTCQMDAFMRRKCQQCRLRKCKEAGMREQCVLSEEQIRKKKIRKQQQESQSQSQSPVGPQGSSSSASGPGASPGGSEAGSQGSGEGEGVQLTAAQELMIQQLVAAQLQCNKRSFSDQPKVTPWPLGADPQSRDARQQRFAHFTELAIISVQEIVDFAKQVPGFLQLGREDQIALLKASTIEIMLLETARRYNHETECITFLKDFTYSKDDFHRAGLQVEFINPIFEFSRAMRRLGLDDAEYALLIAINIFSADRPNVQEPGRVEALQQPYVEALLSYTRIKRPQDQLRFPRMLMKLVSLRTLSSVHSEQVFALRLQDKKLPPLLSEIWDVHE
Nature of the assay: Fluorescence-Resonance Energy Transfer Assay. To be noted: pH 7.2; 37 °C. The method, then: (§1) FRET-based co-activator recruitment assay measures agonist activities in a 384-well plate format. Reaction mixture containing His-tagged hLXR, biotinylated SRC-1 peptide, Europiumlabeled anti-His antibody, and allophycocyaninlabeled streptavidin (Prozyme) was prepared. Ligands were tested in 12-point dose-response curves, and FRET was read on an AnalystGT (Molecular Devices).

In assay [2] the target is T2, Oxysterols receptor LXR-alpha (Homo sapiens, UniProt Q13133).
T2 sequence (Q13133 whole entry): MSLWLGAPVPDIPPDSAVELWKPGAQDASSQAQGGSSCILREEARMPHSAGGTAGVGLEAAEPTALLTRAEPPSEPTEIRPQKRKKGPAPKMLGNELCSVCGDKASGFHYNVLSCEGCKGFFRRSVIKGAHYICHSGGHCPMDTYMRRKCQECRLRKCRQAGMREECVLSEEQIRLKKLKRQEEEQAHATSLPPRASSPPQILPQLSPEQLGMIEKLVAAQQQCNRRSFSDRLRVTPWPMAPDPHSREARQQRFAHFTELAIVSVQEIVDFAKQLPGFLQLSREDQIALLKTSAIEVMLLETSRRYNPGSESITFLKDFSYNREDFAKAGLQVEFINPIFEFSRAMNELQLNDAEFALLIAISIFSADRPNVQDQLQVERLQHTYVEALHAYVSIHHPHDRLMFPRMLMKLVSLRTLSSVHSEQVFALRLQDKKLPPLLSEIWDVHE
Nature of the assay: Scintillation Proximity Assay. As to the method: (§2) SPA assays were run in displacement mode using 30 nM [3H]-GW3965. Ligands were tested in 12-point dose-response curves starting at 20 uM. IC50 values were determined from dose-response and competition curves, which were generated by nonlinear regression analysis using GraphPad Prism.
In general terms: In a scintillation proximity assay essentially only radioactivity close to the scintillant gives light.

In assay [3] the target is T1, Oxysterols receptor LXR-beta. Kind of assay: Scintillation Proximity Assay. The method, then:
as §2

In assay [4] the target is T2, Oxysterols receptor LXR-alpha. Nature of the assay: Fluorescence-Resonance Energy Transfer Assay. The following applies: pH 7.2; 37 °C. As to the method: as §1

Compound `COc1cccc(C2SC(c3ccc(Cl)cc3)=NN2C(=O)c2c(F)cc(F)cc2F)c1OC` (racemic) [5-(4-chlorophenyl)-2-(2,3-dimethoxyphenyl)-3-[(2,4,6-trifluorophenyl)carbonyl]-2,3-dihydro-1,3,4-thiadiazole] returned an EC50 in assay [1] of 0.3 µM. Further, the half-maximal inhibitory concentration (IC50) in assay [2] was 9.8 µM; in assay [3] it was 0.3 µM.

For the compound `O=C(O)Cc1cccc(OCCCN(Cc2cccc(C(F)(F)F)c2Cl)CC(c2ccccc2)c2ccccc2)c1` [2-{3-[3-({[2-chloro-3-(trifluoromethyl)phenyl]methyl}(2,2-diphenylethyl)amino)propoxy]phenyl}acetic acid], the half-maximal inhibitory concentration (IC50) in assay [2] came out at 0.121 µM; in assay [3] it was 0.023 µM.

For `COc1ncccc1C1SC(c2ccc(F)cc2)=NN1C(=O)c1c(F)cc(F)cc1F` (centres undefined) [5-(4-fluorophenyl)-2-(2-methoxypyridin-3-yl)-3-[(2,4,6-trifluorophenyl)carbonyl]-2,3-dihydro-1,3,4-thiadiazole], the concentration for a half-maximal effect (EC50) in assay [4] was determined as 0.4 µM; in assay [1] it was 0.21 µM.

On to `COc1cccc([C@H]2SC(c3ccc(Cl)cc3)=NN2C(=O)c2c(F)cc(F)cc2F)c1OC` [(2R)-5-(4-chlorophenyl)-2-(2,3-dimethoxyphenyl)-3-[(2,4,6-trifluorophenyl)carbonyl]-2,3-dihydro-1,3,4-thiadiazole], for which the 50% inhibitory concentration (IC50) in assay [2] was 5 µM; in assay [3] it was 0.066 µM.
